These results are taken from ChEMBL document CHEMBL1144400 (J Med Chem, 2005).

The target in the assay is Coagulation factor X (Homo sapiens, UniProt P00742). The assay can be described thus: Binding affinity for human factor Xa.
Sequence of Coagulation factor X (P00742 41-179 limits assumed): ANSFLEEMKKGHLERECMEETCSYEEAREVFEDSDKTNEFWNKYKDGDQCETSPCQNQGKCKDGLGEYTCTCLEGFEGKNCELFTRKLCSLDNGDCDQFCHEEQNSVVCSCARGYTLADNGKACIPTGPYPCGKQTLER
Sequence of Coagulation factor X (P00742 235-488 limits assumed): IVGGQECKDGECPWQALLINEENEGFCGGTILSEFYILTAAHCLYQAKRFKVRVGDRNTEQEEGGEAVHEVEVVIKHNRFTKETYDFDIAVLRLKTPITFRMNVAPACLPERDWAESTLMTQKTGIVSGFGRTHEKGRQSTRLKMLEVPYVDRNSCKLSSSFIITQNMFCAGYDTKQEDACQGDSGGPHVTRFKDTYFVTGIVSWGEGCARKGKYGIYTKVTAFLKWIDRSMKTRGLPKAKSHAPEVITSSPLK
The Ki is a dissociation constant, usually derived from enzyme kinetics or from competition with a known ligand. Higher therefore signals lower affinity. Regarding `CC(C)N1CCC(NC(=O)c2cc3cccc(Cl)c3n2Cc2cc(-c3ccc(Cl)s3)on2)CC1`, the affinity corresponds to a Ki of 0.7 nM. That is a sub-nanomolar value. The figure for `CC(C)N1CCC(NC(=O)c2c(C#N)c3cc(S(C)(=O)=O)ccc3n2Cc2cc(-c3ccc(Cl)s3)on2)CC1` is 7 nM; for `Cc1cccc2c(C#N)c(C(=O)NC3CCN(C(C)C)CC3)n(Cc3cc(-c4ccc(Cl)s4)on3)c12` it is 0.07 nM. For the compound `Cc1ccc(C)c2c1cc(C(=O)NC1CCN(C(C)C)CC1)n2Cc1cc(-c2ccc(Cl)s2)on1`, the affinity corresponds to a Ki of 1 nM.

As to `Cc1cccc2c(C#N)c(C(=O)NC3CCN(C(C)C)CC3)n(CC(=O)Nc3ccc(Cl)cc3)c12`, the inhibitory constant (Ki) was found to be 26 nM. Next, `CC(C)N1CCC(NC(=O)c2cc3cccc([N+](=O)[O-])c3n2Cc2cc(-c3cc(Cl)cs3)on2)CC1`: 0.1 nM; `Cc1ccc2cc(C(=O)NC3CCN(C(C)C)CC3)n(Cc3cc(-c4ccc(Cl)s4)on3)c2c1`: 18 nM; `CC(C)N1CCC(NC(=O)c2cc3cc(Br)ccc3n2Cc2cc(-c3ccc(Cl)s3)on2)CC1`: 9 nM. The figure for `Cc1c(C(=O)NC2CCN(C(C)C)CC2)n(Cc2cc(-c3ccc(Cl)s3)on2)c2ccccc12` is 3 nM; for `CC(C)N1CCC(NC(=O)c2cc3cc(F)ccc3n2Cc2cc(-c3ccc(Cl)s3)on2)CC1` it is 3 nM; for `Cc1cccc2cc(C(=O)NC3CCN(C(C)C)CC3)n(CC(=O)Nc3ccc(Cl)cc3)c12` it is 3 nM.

`Cc1cccc2c1cc(C(=O)NC1CCN(C(C)C)CC1)n2CC(=O)Nc1ccc(C(=N)N)cc1` gave a Ki of 25 nM. Next, `CC(C)N1CCC(NC(=O)c2cc3c(Cl)cccc3n2Cc2cc(-c3ccc(Cl)s3)on2)CC1`: 7 nM; `COc1cccc(Cn2c(C(=O)NC3CCN(C(C)C)CC3)c(C#N)c3cccc(C)c32)c1`: 406 nM.

For the compound `CC(C)N1CCC(NC(=O)c2c(C#N)c3ccccc3n2Cc2cc(-c3ccc(Cl)s3)on2)CC1`, the affinity, expressed as Ki, was 0.3 nM.
